The text below walks through data of paper PMC10823514, “Target Identification of a Class of Pyrazolone Protein Aggregation Inhibitor Therapeutics for Amyotrophic Lateral Sclerosis” (ACS Central Science, 2023).

Broadly, the EC50 is the midpoint of the concentration-response curve.

The structures appear in SMILES notation. Where two headings read alike, the source gives them in different places.

The target in one assay is T1, 14-3-3-E (Homo sapiens, UniProt P62258).
T1 construct: His-tag (TEV-cleavable) (cleaved yes); host or cells: E. coli (BL21)
T1 sequence (P62258 1-255): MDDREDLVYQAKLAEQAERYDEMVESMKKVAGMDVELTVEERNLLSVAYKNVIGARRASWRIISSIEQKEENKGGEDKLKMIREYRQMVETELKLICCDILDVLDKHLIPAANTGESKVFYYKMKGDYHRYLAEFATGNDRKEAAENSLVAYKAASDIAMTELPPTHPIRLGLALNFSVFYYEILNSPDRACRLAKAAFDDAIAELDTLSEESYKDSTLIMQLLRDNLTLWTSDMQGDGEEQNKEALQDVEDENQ
Briefly: Fluorescent thermal shift assay (FTSA) with 14-3-3-E. The following applies: for Tm shift (ΔTm): SYPRO orange. Format: binding. How it is done: His-tagged 14-3-3-E, B, and H plasmids were purchased from Addgene (plasmid ID# 31562, 39128, and 38814, respectively). E. coli (BL21) were transformed with extracted plasmids via heat shock and plated on selected media. Individual colonies were selected, grown, and sequenced to confirm gene presence. 1 L cultures were grown to an OD600 of 0.6 at 37 °C and 220 rpm. Protein expression was induced with 1 mM IPTG and expressed for 12 h at 100 rpm and room temperature (approximately 25 °C). Cells were spun down at 4000 rpm for 15 min at 4 °C and resuspended in lysis buffer containing 50 mM Tris (7.4), 150 mM NaCl, 0.08% DDM, 5 mM imidazole, and 5% glycerol (with an EDTA-free complete mini protease inhibitor cocktail). Cells were lysed via sonication, and the lysate was separated from cell debris by centrifugation at 15,000 rpm, 4 °C, for 45 min. The His-tagged protein was purified using QIAGEN Ni-NTA superflow columns, and the His-tag was removed with TEV protease. His-tag-removed proteins were further purified by size exclusion chromatography. His tag removal and size exclusion chromatography purification were done at the Northwestern University Protein Production core. 14-3-3-Q and 14-3-3-G proteins were purchased from Abchem (catalog numbers ab85270 and ab53869, respectively).
All of the FTSA experiments were conducted in HEPES buffer (60 mM HEPES, 150 mM NaCl, pH 7.4). A DMSO balanced 8-point dilution series of the compound in HEPES buffer was prepared in a 96-well assay plate (200, 100, 50, 25, 12.5, 6.25, 3.125, and 0 μM). Then, a 5 μL volume of the dilution series was transferred to a 384-well PCR plate using a multichannel pipet, and the plate was centrifuged at 1000 rpm for 2 min (the plate was covered with an adhesive aluminum seal). The protein sample was premixed at a concentration of 0.04 μg/μL with a 5X concentration of SYPRO orange in HEPES buffer, and a 5 μL aliquot was added to the compound wells. The plate was covered with an optical adhesive seal and was shaken for 2 min, followed by centrifugation at 1000 rpm for 2 min. The thermal scan was performed from 20 to 90 °C with a temperature gradient of 0.5 °C/min. The fluorescence was measured on a Bio-Rad CFX384 real-time PCR instrument.

Assay [1] relates to PC12 SOD1^G93A cells. Description: Neuroprotection against MG-132-induced toxicity in PC12 cells expressing mutant SOD1^G93A (calcein-AM viability). In kind it is cell-based. The note with it: Rattus norvegicus, PC-12, read-out: EC50 to ameliorate MG132-induced protein aggregation and cellular toxicity. How it is done:
With this information in hand, we implemented a phenotypic drug discovery approach to identify a novel therapeutic for treating ALS. The study employed a rat PC12 cell-based assay that expresses SOD1^G93A mutation for screening a chemical library of more than 50,000 compounds to identify promising hits (Figure 1 compounds 3 and 4). The hits are based on attenuating proteasome inhibitor MG-132-induced SOD1^G93A cellular toxicity.
Viability EC50 values were determined according to the previously reported assay procedure.[43] Briefly, PC12 cells were seeded at 15,000 cells/well in 96-well plates, and the medium was changed to remove the doxycycline 4 days prior to compound addition. Compounds were assayed in 12-point dose–response experiments to determine the potency and efficacy. The highest compound concentration tested was 32 μM, which was decreased by half with each subsequent dose. After a 24 h incubation with the analytes, MG-132 (400 nM) was added and the cells were incubated at 37 °C for 24 h. The cells were washed twice with PBS. Calcein-AM was added at a final concentration of 1 μM for 20 min at room temperature, and the fluorescence intensity was read in a POLARstar fluorescence plate reader (BMG). EC50 values were determined by standardizing fluorescent signal to DMSO treated controls. […] The presented data represent the mean average of duplicate experiments.

In assay [2] the test system is PC12 SOD1^G93A cells. The note with it: neuroprotection against MG-132-induced SOD1^G93A toxicity in PC12 cells; leads of the authors' earlier work; read-out: EC50 (NP = neuroprotection); cited from earlier work.

For the molecule `C#CCN(Cc1cc(=O)[nH][nH]1)Cc1c(F)c(F)c(N=[N+]=[N-])c(F)c1F` [PRAPP, 5-(((4-Azido-2,3,5,6-tetrafluorobenzyl)(prop-2-yn-1-yl)amino)methyl)-1,2-dihydro-3H-pyrazol-3-one], the “Tm shift (ΔTm)” value on 14-3-3-E is 2.5 °C. Further, the EC50 with PC12 SOD1^G93A cells [1] was 190 nM.
For `O=c1cc(COc2cc(Cl)cc(Cl)c2)[nH][nH]1` [P2], the EC50 with PC12 SOD1^G93A cells [2] is 67 nM. Also, on 14-3-3-E, the “Tm shift (ΔTm)” value turned out to be 3.2 °C. Also, the Kd at 14-3-3-E (fit of ΔTm versus concentration, n = 2, read-out: Kd^app) turned out to be 2850 nM.
